The text below walks through data of patent publication US20100004259A1, “Tartrate Salt of (7S)-7-[(5-Fluoro-2-Methyl-Benzyl)oxy]-2-[(2R)-2-Methylpiperazin-1-YL]-6,7-Dihydro-5H-Cyclopenta[B]Pyridine” (Pfizer Inc., priority 2006, published 2010).

The nature of data set [1]: hygroscopicity by dynamic vapor sorption. Type of data set: physicochemical. Here is the method:
Hygroscopicity was assessed using a dynamic vapor sorption technique in which an accurately weighed sample is subjected to progressively changing water vapor pressure while simultaneously recording the weight change. The experiment was conducted isothermally at 25° C.
Less than 0.5% increase in weight was detected at 90±2% relative humidity during an isothermal (25.1±0.1° C.) moisture sorption analysis conducted from approximately 1% to 90% (±2%) humidity. […] The amount of water vapor sorption may vary depending on the particle size and surface area of sample.

The target in data set [2] is T1, 5HT2c (Homo sapiens, UniProt P28335).
T1 sequence (P28335 33-458): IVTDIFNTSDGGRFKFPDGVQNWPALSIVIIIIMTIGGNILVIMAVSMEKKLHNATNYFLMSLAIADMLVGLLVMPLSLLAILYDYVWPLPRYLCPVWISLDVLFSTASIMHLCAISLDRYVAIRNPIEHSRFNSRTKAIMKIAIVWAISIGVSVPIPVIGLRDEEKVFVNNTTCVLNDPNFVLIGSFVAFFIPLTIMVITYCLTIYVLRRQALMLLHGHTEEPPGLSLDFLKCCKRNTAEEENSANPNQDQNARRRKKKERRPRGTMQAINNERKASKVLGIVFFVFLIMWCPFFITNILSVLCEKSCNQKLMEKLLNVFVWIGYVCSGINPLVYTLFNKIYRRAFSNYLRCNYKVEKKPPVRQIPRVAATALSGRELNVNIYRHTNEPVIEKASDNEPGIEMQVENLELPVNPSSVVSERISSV
The data set can be described thus: receptor binding assay at human 5HT2c receptor. The settings on record: an amorphous salt of Formula I was tested. Here is the method: (§1) An amorphous salt of Formula I was tested in accordance with the binding assay procedures at human receptors provided in U.S. application Ser. No. 11/395,327, and the following receptor binding data for the compound of Formula I was obtained: […]

Data set [3] concerns the target T2, 5HT2a (Homo sapiens, UniProt P28223). The data set can be described thus: receptor binding assay at human 5HT2a receptor. The settings on record: an amorphous salt of Formula I was tested.
Data set [4] addresses T3, 5HT2b (Homo sapiens, UniProt P41595). The data set can be described thus: receptor binding assay at human 5HT2b receptor. The note with it: an amorphous salt of Formula I was tested. Here is the method:
as §1

Data set [5] addresses T1, 5HT2c. The data set can be described thus: functional activity at the 5-HT2c receptor. The source says:
(§2) Formula I of the present invention is functionally selective for 5-HT2c against 5-HT2a and 5-HT2b, by virtue of its much greater agonistic potency (lower EC50) for 5-HT2c than that observed for 5-HT2a and/or 5-HT2b or its lack of agonistic activity at 5-HT2a and/or 5-HT2b.

Data set [6] deals with T2, 5HT2a. Description: functional activity at the 5-HT2a receptor.
Source text: as §2

Data set [7] deals with T3, 5HT2b. Description: functional activity at the 5-HT2b receptor.
Source text: as §2

For data set [8] the following is noted: cited from earlier work.
For data set [9] the following is noted: cited from earlier work. This is another data set of the same source.

T3 sequence (P41595 whole entry): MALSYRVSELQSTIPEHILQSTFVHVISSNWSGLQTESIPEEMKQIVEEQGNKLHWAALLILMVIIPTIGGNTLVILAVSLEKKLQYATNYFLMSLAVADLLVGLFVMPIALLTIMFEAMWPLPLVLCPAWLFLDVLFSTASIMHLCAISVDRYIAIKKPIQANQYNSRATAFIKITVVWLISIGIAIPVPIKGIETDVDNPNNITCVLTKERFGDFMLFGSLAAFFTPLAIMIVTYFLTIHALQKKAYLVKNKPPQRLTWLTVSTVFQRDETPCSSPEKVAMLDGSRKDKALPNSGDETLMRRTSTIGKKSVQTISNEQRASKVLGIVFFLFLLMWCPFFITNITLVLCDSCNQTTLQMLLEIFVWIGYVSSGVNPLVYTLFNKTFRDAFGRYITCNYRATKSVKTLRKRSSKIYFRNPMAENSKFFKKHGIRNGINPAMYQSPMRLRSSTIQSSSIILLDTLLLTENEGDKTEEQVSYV
T2 sequence (P28223 whole entry): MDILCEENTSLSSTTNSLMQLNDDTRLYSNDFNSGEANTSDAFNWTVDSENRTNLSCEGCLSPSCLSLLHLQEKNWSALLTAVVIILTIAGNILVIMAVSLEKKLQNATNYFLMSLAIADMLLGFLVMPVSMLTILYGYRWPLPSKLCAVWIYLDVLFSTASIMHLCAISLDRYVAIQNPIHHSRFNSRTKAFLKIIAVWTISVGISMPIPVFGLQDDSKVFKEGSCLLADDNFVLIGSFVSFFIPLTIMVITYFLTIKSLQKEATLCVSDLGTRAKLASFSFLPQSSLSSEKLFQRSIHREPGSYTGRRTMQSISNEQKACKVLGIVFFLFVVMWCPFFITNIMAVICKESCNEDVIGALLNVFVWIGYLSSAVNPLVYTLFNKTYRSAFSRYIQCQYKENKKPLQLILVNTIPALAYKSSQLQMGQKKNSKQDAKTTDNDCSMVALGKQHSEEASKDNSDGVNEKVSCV

On to `Cc1ccc(F)cc1CO[C@H]1CCc2ccc(N3CCNC[C@H]3C)nc21.O=C(O)C(O)C(O)C(=O)O` [(S)-7-(5-Fluoro-2-methyl-benzyloxy)-2-((R)-2-methyl-piperazin-1-yl)-6,7-dihydro-5H-[1]pyrindine L(+)-tartrate], for which, in data set [1] (at 90±2% relative humidity, isothermal (25.1±0.1° C.) moisture sorption from approximately 1% to 90% (±2%) humidity), the “increase in weight (moisture sorption)” value is “Less than 0.5%”. Also, the hygroscopicity assessment entry in data set [1] (dynamic vapor sorption, isothermal at 25° C.) is recorded as “non-hygroscopic”.
For `Cc1ccc(F)cc1CO[C@H]1CCc2ccc(N3CCNC[C@H]3C)nc21` [Formula I, (7S)-7-[(5-fluoro-2-methyl-benzyl)oxy]-2-[(2R)-2-methylpiperazin-1-yl]-6,7-dihydro-5H-cyclopenta[b]pyridine], the Ki came out at 1.5 nM at 5HT2c [2], 4.5 nM on 5HT2a [3] and 7.7 nM on 5HT2b [4]. On 5HT2c [5], the “functional activity at the 5-HT2c receptor” value was “potent, high affinity agonist”. Further, the “functional activity at the 5-HT2a receptor” value on 5HT2a [6] is “antagonist or weak partial agonist”. Besides, at 5HT2b [7], the “functional activity at the 5-HT2b receptor” value was “antagonist”.
On to `O=C1Cc2cc(CCN3CCN(c4nsc5ccccc45)CC3)c(Cl)cc2N1` [Ziprasidone, 5-[2-[4-(1,2-benzisothiazol-3-yl)piperazin-1-yl]ethyl]-6-chloroindolin-2-one], for which, in data set [8] (in vivo), the half-life is 6 to 7 h. For the same compound, in data set [8] (taken with food), the oral bioavailability result is listed as “approximately 60%”. In [9], the protein binding entry is recorded as “extensive”.

Broadly, the Ki is the equilibrium dissociation constant of an inhibitor or competing ligand from its target. For orientation: half-life means the time needed for the level to fall by half in the phase considered.
